What all share (type): cell-based, human
Assay [1] concerns Vα24^+ NKT cells from PBMCs. Nature of the assay: Expansion of Vα24+ NKT cells from normal PBMCs by α-GalCer (flow cytometry). Here is the method: (§1) Buffy coat (crude PBMCs), prepared from 400 ml of whole blood drawn from a healthy person, was supplied by the Japanese Red Cross Blood Center. A cell fraction containing PBSCs (crude G-PBSCs) was obtained from patients undergone chemotherapy followed by a dose of 100 to 250 μg/body/day G-CSF subcutaneously for 6 to 10 days (Table 1) by performing apheresis between 2 and 24 hours after the last injection of G-CSF with COBE Spectra™ Cell Separator (LAKE WOOD, Colo. USA 80215) (Hematopoietic Stem Cells: Biology and Therapeutic Applications. Levit DJ, Mertelsmann R(eds), Marcel Dekker, Inc., New York, 1995, 611-630).
(§2) From the obtained crude PBMCs and crude G-PBSCs, mononuclear cell fractions (referred to as “PBMCs” and “G-PBSCs”, respectively) were prepared using Lympho-sepal density-gradient medium (Immuno-Biological Laboratories Gunma, Japan).
(§3) PBMCs and G-PBSCs obtained in (1) were cultured with RPMI-1640 supplemented with 2 mM L-glutamine, 1% pyruvate, 2% bicarbonate, 100 U/ml penicillin, 100 U/ml streptomycin (GIBCO BRL) in the presence of 100 U/ml IL-2 and 100 ng/ml of α-GlyCer. Cells were incubated in a water-vapor-saturated atmosphere containing 5% CO2 gas at 37° C. The cell number and characteristics of these cultured cells were examined on day 0 (d0) and day 12 (d12). As α-GlyCer, (2S,3S,4R)-1-O-(α-D-galactopyranosyl)-N-hexacosanoyl-2-amino-1,3,4-octadecanetriol; referred to as “α-GalCer”) prepared by Kirin Beer Kabushiki Kaisha was used.
(§4) Flow cytometry of the cultured cells was performed using a FACScan cytometer (Becton Dickinson, Sunyvale, Calif.) as follows. Fluorescein isothiocynate (FITC)-conjugated anti-Vα24 (C15), phycoerythrin (PE)-conjugated anti-Vβ11(C21), PE-conjugated anti-CD3, PE-conjugated anti-CD56, PE-conjugated anti-DC83 and PE-conjugated anti-CD8 were obtained from Immunotech (Marseilelles Cedex, France). FITC-conjugated PE-conjugated anti-CD161, PE-conjugated anti-IL-2Rβ, PE-conjugated anti-HLA-DR and PE-conjugated anti-CD4 were obtained from Becton Dickinson. PE-conjugated anti-CD86 was obtained from Pharmingen (San Diego, Calif.). PE-conjugated anti-CD57 was obtained from SIGMA (Saint Louis, Mo.) and used as iso-type controls. Cultured cells were harvested and resuspended in 10% fetal calf serum (FCS)-RPMI1620 medium at a density of 1×10^5/ml. After centrifugation for 3 min at 2000 rpm using MRX-150 high speed refrigerated micro centrifuges (TOMY SEIKO CO., LTD. Tokyo, Japan), the cells were resuspended in 50 μl of PBS containing 1 μl of antibodies described above and incubated for 30 min at 4° C. The cells were then washed twice with PBS, resuspended in PBS and stored at 4° C. until analysis. Data are shown as FSC, SSC, FL-1 indicating Vα24 or CD4, and FL-2 indicating Vβ11, CD8, CD3.

Assay [2] has as its system Vα24^+ NKT cells from G-PBSCs. Nature of the assay: Expansion of Vα24+ NKT cells from G-PBSCs by α-GalCer (flow cytometry). Here is the method:
as §1, §2, §3, §4

The test system of assay [3] is Vα24^+ NKT cells from G-PBSCs. The assay is described as above. As to conditions: IL-2 and α-GalCer (FIG. 5).
Setting [4] is: normal PBMCs, 100 ng/ml α-GalCer + 100 U/ml IL-2, day 12, one line per donor (No. 1-5).
The mark [5] stands for this setting: G-PBSCs of cancer patients, 100 ng/ml α-GalCer + 100 U/ml IL-2, day 12, one line per patient (No. 6-10).

The structures appear in SMILES notation. Several values for one entry are separate records, joined by “and”; a condition that tells them apart may be missing. Equal entries are not always repeated. Entries after “also recorded” stand apart in the source; their conditions may differ.

With `CCCCCCCCCCCCCCCCCCCCCCCCCC(=O)N[C@@H](CO[C@H]1O[C@H](CO)[C@H](O)[C@H](O)[C@H]1O)[C@H](O)[C@H](O)CCCCCCCCCCCCCC` [α-GalCer, (2S,3S,4R)-1-O-(α-D-galactopyranosyl)-N-hexacosanoyl-2-amino-1,3,4-octadecanetriol], the “course of number of Vα24+ NKT cells after day 12” value in assay [1] (PBMCs, IL-2 and α-GalCer (FIG. 5)) is on record as “gradually decrease after day 12”; in assay [3], “continue to expand up to day 30 of culture”. Moreover, the “D12 NKT % α-GalCer (+)” value was 0.18% and 6.58% and 0.19% and 0.3% and 0.66% in assay [1] (setting [4]); 2.05% and 8.49% and 4.73% and 3.21% and 22.6% in assay [2] (setting [5]). The “D12 NKT (cell number) α-GalCer (+)” value is 2376 and 24346 and 9500 and 18300 and 20328 in assay [1] (setting [4]); “(51660); also recorded: (314130); also recorded: (520300); also recorded: (64200); also recorded: (1414375)” in assay [2] (setting [5]). Moreover, the “α-GalCer (+)/(−)” value in assay [1] (normal PBMCs, day 12, with vs without α-GalCer, one line per donor (No. 1-5)) was 2.2 and 15.5 and 1.0 and 4.1 and 4.5; in assay [2] (G-PBSCs, day 12, with vs without α-GalCer, one line per patient (No. 6-10)), 205.0 and 196.9 and 101.6 and 114.6 and 673.5. The d12/d0 was 1.6 and 4.1 (2×) and 1.4 and 6.1 in assay [1] (normal PBMCs, with α-GalCer, day 12 vs day 0, one line per donor (No. 1-5)); 34.4 and 314.1 and 104.1 and 32.1 and 1414.4 in assay [2] (G-PBSCs, with α-GalCer, day 12 vs day 0, one line per patient (No. 6-10)). The “amplification in G-PBSCs relative to PBMCs” value in assay [2] (day 12, IL-2 and α-GalCer) is “at least 10 fold”.
